Experimental data reported in patent publication US4536335A, “Carbapenem antibiotics” (Bristol-Myers Company, priority 1983, dated 1985).
In brackets after ≈: the same amount, converted by molar mass. Where two headings read alike, the source gives them in different places.

What was measured:
[1] = system: P. morganii A15153; test: In vitro MIC, tube dilution; type: cell-based; details: Nutrient Broth, overnight incubation at 37° C., additional data table
[2] = system: S. aureus A-9537; test: In vitro MIC, tube dilution; type: cell-based; details: Staphylococcus aureus, overnight incubation at 37° C., additional data table
[3] = system: P. mirabilis A-9900; test: In vitro MIC, tube dilution; type: cell-based; details: Proteus mirabilis, A9900, tube dilution, Nutrient Broth, overnight incubation at 37° C.; additional data table
[4] = system: S. aureus A-9606; test: Protective effect in the intramuscular treatment of infected mice (PD50); type: in vivo; details: Staphylococcus aureus, A9606, im; mice infected i.p. (Ex. 2: 2 × 10^9 organisms; Ex. 4 and 5: ~9 × 10^7), treated i.m. 0 and 2 h postinfection; read-out: PD50/treatment, S. aureus A-9606
[5] = system: S. pyogenes A-9604; test: In vitro MIC, tube dilution; type: cell-based; details: Streptococcus pyogenes, A9604, tube dilution, Nutrient Broth, overnight incubation at 37° C.; additional data table
[6] = system: E. cloacae A-9659; test: In vitro MIC, tube dilution; type: cell-based; details: Nutrient Broth, overnight incubation at 37° C., additional data table
Source text: N-formimidoyl thienamycin was included as a comparison compound.

[7] = system: P. rettgeri A22424; test: In vitro MIC, tube dilution; type: cell-based; details: Nutrient Broth, overnight incubation at 37° C., additional data table
[8] = system: E. cloacae A-9656; test: In vitro MIC, tube dilution; type: cell-based; details: Enterobacter cloacae, A9656, tube dilution, Nutrient Broth, overnight incubation at 37° C.; additional data table
[9] = system: S. pneumoniae A-9585; test: In vitro MIC, tube dilution; type: cell-based; details: Streptococcus pneumoniae, A9585, Nutrient Broth, overnight incubation at 37° C., additional data table
[10] = system: E. coli A20341-1; test: In vitro MIC, tube dilution; type: cell-based; details: Nutrient Broth, overnight incubation at 37° C., additional data table
[11] = system: S. aureus A-9606 (Pen-res.); test: In vitro MIC, tube dilution; type: cell-based; details: Staphylococcus aureus, Nutrient Broth, overnight incubation at 37° C., additional data table, read-out: MIC S. aureus (Pen-res.) A-9606
[12] = system: K. pneumoniae A-9664; test: In vitro MIC, tube dilution; type: cell-based; details: Nutrient Broth, overnight incubation at 37° C., additional data table
[13] = system: S. marcescens A20019; test: In vitro MIC, tube dilution; type: cell-based; details: Nutrient Broth, overnight incubation at 37° C., additional data table
[14] = system: K. pneumoniae A20468; test: In vitro MIC, tube dilution; type: cell-based; details: Nutrient Broth, overnight incubation at 37° C., additional data table
[15] = system: P. vulgaris A21559; test: In vitro MIC, tube dilution; type: cell-based; details: Nutrient Broth, overnight incubation at 37° C., additional data table
[16] = system: P. aeruginosa A-9843A; test: In vitro MIC, tube dilution; type: cell-based; details: Pseudomonas aeruginosa, A9843A, Nutrient Broth, overnight incubation at 37° C., additional data table
[17] = Urinary recovery after intramuscular administration to mice; type: in vivo; details: mouse, intramuscular dose of 20 mg/kg, 0-6 hour collection, 360 min
Procedure: Compounds were solubilized in 0.1 M phosphate buffer pH 7. Values are from a single test; 4 mice per compound.
(§1) Also shown is the urinary recovery in the mice.
***Recovery based on 0-6 hour collection

[18] = system: E. coli A15119; test: In vitro MIC, tube dilution; type: cell-based; details: Nutrient Broth, overnight incubation at 37° C., additional data table
[19] = system: P. aeruginosa A21213; test: In vitro MIC, tube dilution; type: cell-based; details: Pseudomonas aeruginosa, A21213, tube dilution, Nutrient Broth, overnight incubation at 37° C.; additional data table
[20] = system: S. faecalis A20688; test: In vitro MIC, tube dilution; type: cell-based; details: Nutrient Broth, overnight incubation at 37° C., additional data table
[21] = Half-life in phosphate buffer solution; type: physicochemical; details: 37° C.
Procedure: A solution of para-nitrobenzyl 3-[2-(N-methylthiomorpholinium diphenylphosphate)ethylthio]-6α-[1'-(R)-hydroxyethyl]-7-oxo-1-azabicyclo[3.2.0]hept-2-ene-2-carboxylate (1.31 g, 1.76 mmol) in 0.1 M pH 7.4 phosphate buffer (48.8 mL), tetrahydrofuran (20 mL) and diethyl ether (20 mL) was hydrogenated over 10% pd/C (1.5 g) in a Parr shaker for 1 h at 40 psi. The reaction mixture was diluted with diethyl ether (40 mL) and the phases were separated. The organic phase was washed with water (2×5 mL). The aqueous phases were combined, filtered through a #52 hardened filter paper, washed with diethyl ether (2×20 mL) and pumped under vacuum. The aqueous solution was poured on a silica gel reverse phase column and the desired carbapenem was eluted with 5% acetonitrile-water.
To a solution of p-nitrobenzyl (5R,6S)-3-[2-(1-methylmorpholino)ethylthio]-6-[(R)-1-hydroxyethyl]-7-oxo-1-azabicyclo[3.2.0]hept-2-ene-2-carboxylate diphenylphosphate (0.360 g, 0.49 mmol) in 13 mL of phosphate buffer (0.05 M pH 7.4) was added 0.36 g of 10% palladium-on-charcoal, 20 mL of tetrahydrofuran and 20 mL of diethyl ether. This mixture was hydrogenated (Parr) at 32 psi for 1 h. The mixture was filtered through Celite and the filter pad was washed with H2 O and diethyl ether. The aqueous phase was separated and the pH was adjusted to 7.0 with additional pH 7.4 phosphate buffer. After removing residual organic solvents in vacuo the aqueous solution was applied to a C18 reverse-phase column.
To a solution of (5R,6S)paranitrobenzyl 3-[2-(1,4-dimethyl-1-piperazinium)ethylthio]-6-[1-(R)-hydroxyethyl]-7-oxo- 1-azabicyclo[3.2.0]hept-2-ene-2-carboxylate diphenylphosphate (0.47 g, 0.623 mmol) in wet tetrahydrofuran (25 mL) was added diethyl ether (25 mL), potassium phosphate monobasic-sodium hydroxide buffer (13 mL, pH 7.22) and 10% palladium on charcoal (0.47 g). The resulting mixture was hydrogenated at 23° C. under 40 psi for 1 h. The two layers were separated and the organic layer was extracted with water (2×7 mL).
To a cold (-10° C.) solution of (5R,6S)-3-[2 -(N-methyl-thiomorpholinium)ethylthio]-6-[1-(R)-hydroxyethyl]-7-oxo-1-azabicyclo(3.2.0)-hept-2-ene-2-carboxylate (608 mg, 1.65 mmol) in a 1:1 mixture of acetonitrile-water (9 mL) was added m-chloroperbenzoic acid (334.8 mg, 1.65 mmol) in small portion over a 1 hour period. The mixture was then diluted with water (15 mL) and washed with diethyl ether (3×15 mL).
A mixture of (5R,6S) paranitrobenzyl 3-[2-(1,4,4-trimethyl-1-piperazinium)ethylthio]-6-[1R-hydroxyethyl]-7-oxo- 1-azabicyclo(3.2.0)hept-2-ene-2-carboxylate bischloride (0.40 g, 0.68 mmol), phosphate buffer (30 mL, 0.05M, pH 7.0), tetrahydrofuran (10 mL), ether (30 mL) and 10% palladium on charcoal (0.40 g) was hydrogenated at 23° C. under 35 psi for 1 h. The two phases were separated. The organic phase was extracted with water (10 mL).

[22] = Blood levels in mice after intramuscular administration; type: in vivo; details: mouse, intramuscular dose of 20 mg/kg; 20 mg/kg
Source text: Compounds were solubilized in 0.1 M phosphate buffer pH 7. Values are fro
a single test; 4 mice used per compound.
*t1/2 refers to halflife in minutes
**AUC refers to the area under the blood concentrationtime curve
as §1
Compounds were solubilized in 0.1 M phosphate buffer, pH 7.
Values based on a single test; 4 mice per compound.
*T1/2 refers to halflife in minutes

[23] = system: P. aeruginosa A20481; test: Protective effect in the intramuscular treatment of infected mice (PD50); type: in vivo; details: Pseudomonas aeruginosa, A20481, im; mice infected i.p. (Ex. 2: 1 × 10^5 organisms), treated i.m. 0 and 2 h postinfection
[24] = system: P. aeruginosa A-9843a; test: as above; type: in vivo; details: Pseudomonas aeruginosa, A9843A, im, read-out: PD50/treatment, P. aeruginosa A9843A
Procedure: The PD50 (dose in mg/kg required to give protection to 50% of the infected mice) is indicated.
Treatment Schedule: Mice were treated i.m. with drugs 0 and 2 hours post-infection; 5 mice per dose were used for each test
*For compound of Ex. 2, mice were infected i.p. with 2 × 10^9
compounds of Ex. 4 and 5, mice were infected i.p. with ~9 ×
were treated i.m. with drugs 0 and 2 h postinfection.

[25] = A9537, 50% serum, tube dilution, read-out: MIC S. aureus-50% serum A-9537
[26] = A9537, tube dilution, Nutrient Broth, read-out: MIC S. aureus A-9537

C[C@@H](O)[C@H]1C(=O)N2C(C(=O)[O-])=C(SCC[N+]3(C)CC[S+]([O-])CC3)C[C@H]12 (single isomer, unassigned) [Ex. 5 comp. B]
MIC M. morganii A15153 ([1]; tube dilution): 0.5 µg/mL (≈ 1.29 µM)
MIC [2, 25]: 0.06 µg/mL (≈ 0.154 µM)
MIC [2, 26]: 0.03 µg/mL (≈ 0.0772 µM)
MIC [3]: 0.25 µg/mL (≈ 0.643 µM)
ED50 [4]: 0.39 mg/kg
MIC [5]: 0.008 µg/mL (≈ 0.0206 µM)
MIC E. cloacae A-9659 ([6]; tube dilution): 0.5 µg/mL (≈ 1.29 µM)
MIC P. rettgeri A22424 ([7]; tube dilution): 1 µg/mL (≈ 2.57 µM)
MIC [8]: 0.25 µg/mL (≈ 0.643 µM)
MIC [9]: 0.004 µg/mL (≈ 0.0103 µM)
MIC E. coli A20341-1 ([10]; tube dilution): 0.13 µg/mL (≈ 0.335 µM)
MIC [11]: 0.06 µg/mL (≈ 0.154 µM)
MIC K. pneumoniae A-9664 ([12]; tube dilution): 0.25 µg/mL (≈ 0.643 µM)
MIC S. marcescens A20019 ([13]; tube dilution): 0.25 µg/mL (≈ 0.643 µM)
MIC K. pneumoniae A20468 ([14]; tube dilution): 0.5 µg/mL (≈ 1.29 µM)
MIC P. vulgaris A21559 ([15]; tube dilution): 0.25 µg/mL (≈ 0.643 µM)
MIC [16]: 63 µg/mL (≈ 162 µM)
Urine Recovery [17]: 15 ± 3%
MIC E. coli A15119 ([18]; tube dilution): 0.13 µg/mL (≈ 0.335 µM)
MIC [19]: 32 µg/mL (≈ 82.4 µM)
MIC S. faecalis A20688 ([20]; tube dilution): 1 µg/mL (≈ 2.57 µM)
T 1/2 (solution stability) ([21]; 0.065 M, pH 7.4 phosphate buffer, listed as Fraction B): 10.75 h
Blood AUC [22]: 4600 ng·h/mL
Blood Cmax [22]: 12600 ng/mL
Blood T1/2 [22]: 0.167 h

C[C@@H](O)[C@H]1C(=O)N2C(C(=O)[O-])=C(SCC[N+]3(C)CCSCC3)C[C@H]12 [Example 2, 3-[2-(N-Methyl-thiomorpholinium)ethylthio]-6α-[1'-(R)-hydroxyethyl]-7-oxo-1-azabicyclo[3.2.0]-hept-2-ene-2-carboxylate]
MIC ([1]; Morganella morganii, A15153, tube dilution, read-out: MIC M. morganii A15153): 0.06 µg/mL (≈ 0.161 µM)
MIC [2, 25]: 0.016 µg/mL (≈ 0.043 µM)
MIC [2, 26]: 0.008 µg/mL (≈ 0.0215 µM)
MIC [3]: 0.06 µg/mL (≈ 0.161 µM)
MIC [5]: 0.002 µg/mL (≈ 0.00537 µM)
MIC ([6]; Enterobacter cloacae, A9659, tube dilution): 0.13 µg/mL (≈ 0.349 µM)
MIC ([7]; Providencia rettgeri, A22424, tube dilution): 0.13 µg/mL (≈ 0.349 µM)
MIC [8]: 0.13 µg/mL (≈ 0.349 µM)
MIC [9]: 0.001 µg/mL (≈ 0.00268 µM)
MIC ([10]; Escherichia coli, A203411, tube dilution): 0.03 µg/mL (≈ 0.0805 µM)
MIC [11]: 0.016 µg/mL (≈ 0.043 µM)
MIC ([12]; Klebsiella pneumoniae, A9664, tube dilution): 0.06 µg/mL (≈ 0.161 µM)
MIC ([13]; Serratia marcescens, A20019, tube dilution): 0.06 µg/mL (≈ 0.161 µM)
MIC ([14]; Klebsiella pneumoniae, A20468, tube dilution): 0.13 µg/mL (≈ 0.349 µM)
MIC ([15]; Proteus vulgaris, A21559, tube dilution): 0.03 µg/mL (≈ 0.0805 µM)
MIC [16]: 32 µg/mL (≈ 85.9 µM)
MIC ([18]; Escherichia coli, A15119, tube dilution): 0.016 µg/mL (≈ 0.043 µM)
MIC [19]: 8 µg/mL (≈ 21.5 µM)
MIC ([20]; Enterococcus faecalis, A20688, tube dilution): 0.25 µg/mL (≈ 0.671 µM)
half-life ([21]; 0.1 m phosphate buffer, pH 7, 0.1 M pH 7 phosphate buffer, read-out: T1/2 (solution stability) (converted)): 17.7 h
ED50 [23]: 33 mg/kg
ED50 [24]: 4.7 mg/kg
